Holding throughout (assay): NCI tumour cell line growth inhibition, 48 h
Assay [1] relates to U251 CNS.
Assay [2] has as its system SK-MEL-5 melanoma.
The subject of assay [3] is HS 578T breast.
The test system of assay [4] is MALME-3M melanoma.
Assay [5] has as its system SNB-75 CNS.
Assay [6] has as its system 786-0 renal.
For assay [7], the system named is MCF7 breast.
Assay [8] has as its system DU-145 prostate.
The test system of assay [9] is SW-620 colon.
The test system of assay [10] is NCI/ADR-RES ovarian.

Where “and” joins values, the source holds several entries; their conditions need not be identical. Identical values can stand only once.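 Five compound concentrations were applied to cells in 96-well plates for 48 hours; endpoints were derived by simple linear interpolation of the resulting dose-response curve. Abbreviation: GI50, concentration required for 50% inhibition of growth. TGI: concentration producing complete growth inhibition.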

For `C[C@]12CC[C@H]3[C@@H](CCC4=CC(=O)CC[C@@]43C)[C@]1(O)CC[C@]2(O)C(=O)CO`, the TGI in assay [1], in assay [2], in assay [3], in assay [4], in [5] and in [6] was greater than 100 µM each time. Further, the TGI in assay [7], in [8], in assay [9] and in assay [10] was greater than 100 µM each time.

Take `COc1ccc2c(c1[N+](=O)[O-])CC[C@@H]1[C@@H]2CC[C@]2(C)C(=O)CC[C@@H]12`: the GI50 in [1] was 476 µM; in assay [2] it was 502 µM; in assay [3] it was 119 µM; in assay [4], greater than 748 µM; in assay [5] it was 142 µM; in assay [6] it was greater than 25 µM. For the same compound, the GI50 in assay [7] is 998 µM; in assay [8], greater than 939 µM; in [9], greater than 1000 µM; in [10] it was 515 µM. Further, the TGI in assay [1] is greater than 1000 µM; in [2], greater than 1000 µM; in assay [5], > 25 µM and 345 µM; in assay [6], greater than 562 µM; in [7], greater than 1000 µM; in [8] it was greater than 1000 µM. Moreover, the TGI in assay [9] and in assay [10] was greater than 1000 µM in each case.

As for `O=C(Nc1ccc(Nc2ccc3c(c2)C(=O)c2ccccc2C3=O)c2c1C(=O)c1ccccc1C2=O)c1ccccc1`, the TGI was 98.7 µM in [1]; greater than 100 µM in [2]; greater than 91.9 µM in assay [3]; greater than 100 µM in assay [4]; 58.1 µM in [5]; greater than 100 µM in assay [6]. In addition, the TGI in assay [7], in [8], in assay [9] and in [10] was greater than 100 µM each time.

Take `O=c1[nH]c(=O)n(Cc2ccc(C34CC5CC(CC(C5)C3)C4)c(O)c2)cc1F`: the GI50 in [1] is 12.3 µM; in [2], 11.2 µM; in assay [3], 15 µM; in [4], 14.6 µM; in assay [5] it was 12.8 µM; in assay [6] it was 13.8 µM. The GI50 in [7] is 11.9 µM; in [8] it was 16.7 µM; in [9], 13.5 µM; in assay [10], 13 µM. The TGI in [1] was determined as 24.9 µM; in assay [2] it was 23.3 µM; in [3] it was 41.7 µM; in assay [4], 30.9 µM; in assay [5] it was 32 µM; in assay [6], 28.5 µM. The TGI was found to be 30.9 µM in assay [7], 32.4 µM in assay [8], 34.2 µM in assay [9] and 31.4 µM in [10].

Turning to `CN1CCC2(CC1)C(=O)Nc1cc(NC(=O)c3ccc4c(c3)C[C@@H]3C(C)(C)[C@H](O)[C@H](F)C[C@@]3(C)O4)ccc12`, the GI50 in assay [1] is 0.0472 µM; in assay [2], 2.62 µM; in assay [3], 0.0232 µM; in assay [4], 1.49 µM; in assay [5], 0.0373 µM; in assay [6], 0.249 µM. Also, the GI50 in assay [7] was 0.0925 µM; in assay [8] it was 10.6 µM; in [9], 0.588 µM; in assay [10], greater than 100 µM. Besides, the TGI in assay [1] stood at 16.4 µM; in [2], 12.3 µM; in assay [3], 2.24 µM; in [4], 9.79 µM; in assay [5], 4.8 µM; in [6], 14.9 µM. Moreover, the TGI in assay [7] is 21.4 µM; in assay [8], 57.6 µM; in assay [9], 11.5 µM; in assay [10], greater than 100 µM.

As for `c1ccc2[nH]c(-c3ccc(Nc4nc(N5CCCC5)nc5[nH]ncc45)cc3)nc2c1`, the GI50 in assay [1] is 0.185 µM; in assay [2], 1.29 µM; in assay [3], 1.21 µM; in assay [4], 0.314 µM; in assay [5], 1.28 µM; in [6], 0.17 µM. The GI50 in assay [7] is 0.213 µM; in assay [8], 1.13 µM; in assay [9], 0.211 µM; in assay [10] it was 0.392 µM. Also, the TGI in [1] worked out at 0.39 µM; in assay [2], 2.56 µM; in assay [3] it was 4.26 µM; in assay [4] it was 1.3 µM; in assay [5], 2.76 µM; in assay [6], 0.347 µM. The TGI in assay [7] worked out at 0.619 µM; in [8], 2.77 µM; in assay [9], 0.486 µM; in [10], 1.47 µM.

Consider `O=C(Nc1ccccc1/C=C/c1n[nH]c2ccccc12)c1ccccc1`, for which the GI50 in assay [1] was 1.72 µM; in assay [2], 3.81 µM; in [3] it was 3.64 µM; in assay [4] it was 4.05 µM; in [5] it was 9.04 µM; in assay [6] it was 12.6 µM. Besides, the GI50 is 0.505 µM in assay [7], 2.6 µM in [8], 1.71 µM in assay [9] and 4.69 µM in assay [10]. Further, the TGI came out at 3.75 µM in assay [1]; 16.5 µM in assay [2]; 17.7 µM in [3]; 12 µM in assay [4]; 23.9 µM in [5]; 26.7 µM in [6]. Moreover, the TGI in assay [7] is 13.2 µM; in assay [8] it was 8.23 µM; in assay [9], 11.5 µM; in assay [10], 20 µM.

For the compound `CCOC(=O)c1sc2nc(=S)[nH]c(NC(N)=S)c2c1C`, the GI50 in [1] is 17.2 µM; in [2] it was 16.8 µM; in assay [3], 26 µM; in [4], 37 µM; in assay [5] it was 21.4 µM; in [6], 21.5 µM. Moreover, the GI50 in assay [7] is 16.5 µM; in assay [8], 15.4 µM; in assay [9], 23.3 µM; in assay [10], 12.7 µM. The TGI in assay [1] worked out at 36.8 µM; in assay [2], 31.7 µM; in [3], 59.7 µM; in assay [4], 72.1 µM; in assay [5] it was 66.6 µM; in [6] it was 45.5 µM. Also, the TGI was 37.2 µM in assay [7], 39.4 µM in [8], 55.1 µM in assay [9] and 29.9 µM in [10].

As to `COc1cc(OC)c(OC)cc1/C=C/c1ccccn1`, the TGI in [1], in assay [2], in assay [3], in assay [4], in [5] and in [6] was greater than 10 µM throughout. Moreover, the TGI in [7], in assay [8], in assay [9] and in assay [10] was greater than 10 µM each time.

Take `CC(NC(=O)c1ccc(Cl)c(Cl)c1)c1ccc(-c2ccccc2)cc1` (stereo not drawn): the TGI was greater than 100 µM in [1]; greater than 100 µM in assay [2]; 65.1 µM in [3]; 49.1 µM in [4]; 39.3 µM in assay [5]; 47.5 µM in assay [6]. Further, the TGI in assay [7] is greater than 100 µM; in [8], 57.5 µM; in assay [9] it was greater than 100 µM; in [10] it was greater than 100 µM.

As for `C=C1C(=O)O[C@@H]2C[C@@]3(C)CCC[C@H](C)C3=C[C@H]12` (tested in a mixture with another compound), the TGI in assay [1] came out at 9.93 µM; in assay [2] it was 3.9 µM; in assay [3], 17.3 µM; in [4], 2.42 µM; in assay [5], 5.6 µM; in [6] it was 2.83 µM. Further, the TGI in assay [7] is 10.7 µM; in [8], 8.67 µM; in assay [9], 3.97 µM; in assay [10], 5.2 µM.

In the case of `CCOc1cc(/C=C/C(=O)CC(=O)/C=C/c2ccc(OC(=O)CNc3nc4ccc(OC)cc4s3)c(OCC)c2)ccc1OC(=O)CNc1nc2ccc(OC)cc2s1`, the GI50 in assay [1] is 3.93 µM; in [2] it was 5.25 µM; in assay [3], 3.16 µM; in [4] it was 12.3 µM; in assay [5], 6.77 µM; in assay [6], 17 µM. Besides, the GI50 in [7] is 2.54 µM; in [8], 3.17 µM; in [9], 3.78 µM; in assay [10] it was 20 µM. In addition, the TGI in assay [1] was found to be 14.5 µM; in assay [2] it was 17.2 µM; in assay [3], 23.9 µM; in assay [4], 27.3 µM; in [5], 34.3 µM; in assay [6] it was 85.1 µM. The TGI in [7] was 10.8 µM; in [8], 12.3 µM; in [9], 13.2 µM; in [10], greater than 100 µM.

Turning to `O=C(c1ccccc1)c1nc2ccc(Cl)cc2cc1C(Br)Br`, the TGI came to 0.674 µM in [1]; 2.01 µM in [2]; 0.59 µM in assay [3]; 5.43 µM in assay [4]; 1.41 µM in assay [5]; 0.378 µM in [6]. Also, the TGI in assay [7] came out at 1.96 µM; in assay [8], 1.97 µM; in assay [9], 0.905 µM; in assay [10], 0.505 µM.

For `CCn1c(-c2nonc2N)nc2cnc(Oc3cccc(NC(=O)c4ccc(OCCN5CCOCC5)cc4)c3)cc21`, the GI50 in [1] is 7.17 µM; in assay [2] it was 3.18 µM; in assay [3] it was 0.0149 µM; in assay [4], 4.14 µM; in assay [5] it was 0.0594 µM; in [6] it was 3.49 µM. Also, the GI50 is 3.87 µM in assay [7], 5.43 µM in assay [8], 4.57 µM in [9] and 6.1 µM in assay [10]. For the same compound, the TGI was greater than 25 µM in [1]; greater than 22 µM in assay [2]; 8.26 µM in [3]; greater than 25 µM in [4]; 7.65 µM in assay [5]; greater than 25 µM in [6]. Further, the TGI in assay [7], in [8], in [9] and in [10] was greater than 25 µM throughout.

The record behind these values is PubChem BioAssay (NCI).
